The Ki is a dissociation constant, usually derived from enzyme kinetics or from competition with a known ligand.

This assay concerns the target T1, human recombinant AT2 receptor (Homo sapiens, UniProt P50052).
T1 construct: purchased PerkinElmer 6110538; host or cells: HeLa cells
T1 sequence (P50052 1-363): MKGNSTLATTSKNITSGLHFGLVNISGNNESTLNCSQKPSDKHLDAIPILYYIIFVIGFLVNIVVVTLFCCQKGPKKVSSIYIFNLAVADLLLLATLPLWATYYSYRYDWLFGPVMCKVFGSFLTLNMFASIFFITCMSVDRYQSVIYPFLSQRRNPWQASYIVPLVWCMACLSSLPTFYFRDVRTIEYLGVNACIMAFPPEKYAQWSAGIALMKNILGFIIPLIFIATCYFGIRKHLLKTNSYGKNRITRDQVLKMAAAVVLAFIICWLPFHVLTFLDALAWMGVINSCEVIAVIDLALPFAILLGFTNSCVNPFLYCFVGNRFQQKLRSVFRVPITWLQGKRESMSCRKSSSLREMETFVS
In words: Affinity for AT2 receptor (receptor binding assay). The conditions noted are these: membrane fraction from HeLa cells expressing human recombinant AT2 receptor; 125I-[Sar1, Ile8]-Ang II 0.1 nmol/L. The method, then: Using a commercially available receptor membrane fraction (PerkinElmer, Cat No. 6110538) obtained from HeLa cells expressing human recombinant AT2 receptor, a receptor binding assay was performed. ^125I-[Sar^1, Ile^8]-Ang II (0.8 kBq, final concentration 0.1 nmol/L) and various concentrations of the compound of the present invention were added to a solution of 50 mmol/L Tris-HCl (pH 7.4), 125 mmol/L NaCl, 6.5 mmol/L MgCl2 and 1 mmol/L EDTA containing the receptor membrane fraction, and the mixture was incubated at room temperature for 90 min. Bound or free ^125I-[Sar^1, Ile^8]-Ang II was separated with a glass fiber filter (Millipore, MultiScreen FB Plate), and the radioactivity of ^125I-[Sar^1, Ile^8]-Ang II bound to the receptor was determined. […] On the other hand, Kd value of ^125I-[Sar^i, Ile^8]-Ang II for AT2 receptor in the absence of the compound of the present invention was determined by Scatchard analysis. Using the IC50 value obtained from the concentration-response curve and the Kd value of ^125I-[Sar^1, Ile^8]-Ang II, the Ki value of the compound of the present invention was calculated and used as an index of the affinity for AT2 receptor.
Consider `CC(C)N(C(=O)C(CC1CC1)C(=O)NS(=O)(=O)/C=C/c1ccccc1)c1ccc(F)cc1` (single isomer, unassigned) [Example 516, (2S or 2R)-2-cyclopropylmethyl-N-(4-fluorophenyl)-N-isopropyl-N′-((E)-2-styrylsulfonyl)malonamide], for which the Ki came to 6.1 nM.
For `CCN(CC)C(=O)C(Cc1ccc(NC(=O)c2c(F)cccc2F)cc1)C(=O)NS(=O)(=O)c1ccc2ccccc2c1` (stereo not shown) [Example 22, N,N-diethyl-2-{4-[(2,6-difluorobenzoyl)amino]benzyl}-N′-(2-naphthylsulfonyl)malonamide] the value was 8 nM; for `CCN(CC)C(=O)C(Cc1ccc(NC(=O)Oc2ccccc2)cc1)C(=O)NS(=O)(=O)c1ccc2ccccc2c1` (stereo not shown) [Example 87, N,N-diethyl-N′-(2-naphthylsulfonyl)-2-[4-(phenoxycarbonylamino)benzyl]malonamide], 23 nM; for `CCN(CC)C(=O)[C@H](Cc1ccc(NC(=O)c2ccccc2)cc1)C(=O)NS(=O)(=O)c1ccc2ccccc2c1` [Example 92, (2S)-2-[4-(benzoylamino)benzyl]-N,N-diethyl-N′-(2-naphthylsulfonyl)malonamide], 2.3 nM.
For `CCN(CC)C(=O)[C@H](Cc1ccc(NC(=O)c2cc(F)ccc2N)cc1)C(=O)NS(=O)(=O)c1ccc2ccccc2c1` [Example 99, (2S)-2-{4-[(2-amino-5-fluorobenzoyl)amino]benzyl}-N,N-diethyl-N′-(2-naphthylsulfonyl)malonamide], the Ki was 0.9 nM.
For `CCN(CC)C(=O)[C@H](Cc1ccc(NC(=O)c2c(N)cccc2F)cc1)C(=O)NS(=O)(=O)c1ccc2ccccc2c1` [Example 100, (2S)-2-{4-[(2-amino-6-fluorobenzoyl)amino]benzyl}-N,N-diethyl-N′-(2-naphthylsulfonyl)malonamide] the value was 1.8 nM.
For `CCN(CC)C(=O)[C@H](Cc1ccc(NC(=O)c2ccccn2)cc1)C(=O)NS(=O)(=O)c1ccc2ccccc2c1` [Example 101, (2S)—N,N-diethyl-N′-(2-naphthylsulfonyl)-2-{4-[(2-pyridylcarbonyl)amino]benzyl}malonamide] the value was 16 nM.
The result for `CCN(CC)C(=O)[C@H](Cc1ccc(NC(=O)c2ccc(Cl)cc2N)cc1)C(=O)NS(=O)(=O)c1ccc2ccccc2c1` [Example 103, (2S)-2-{4-[(2-amino-4-chlorobenzoyl)amino]benzyl}-N,N-diethyl-N′-(2-naphthylsulfonyl)malonamide] reads 3.2 nM; that for `CCN(CC)C(=O)[C@H](Cc1ccc(NC(=O)c2ccccc2N)cc1)C(=O)NS(=O)(=O)c1ccc2ccccc2c1` [Example 104, (2S)-2-{4-[(2-aminobenzoyl)amino]benzyl}-N,N-diethyl-N′-(2-naphthylsulfonyl)malonamide], 3.3 nM.
With `CCN(CC)C(=O)[C@H](Cc1ccc(NC(=O)c2cc(Cl)ccc2N)cc1)C(=O)NS(=O)(=O)c1ccc2ccccc2c1` [Example 105, (2S)-2-{4-[(2-amino-5-chlorobenzoyl)amino]benzyl}-N,N-diethyl-N′-(2-naphthylsulfonyl)malonamide], the Ki was found to be 5.4 nM.
Consider `CCN(CC)C(=O)[C@H](Cc1ccc(NC(=O)c2cc(F)c(F)cc2N)cc1)C(=O)NS(=O)(=O)c1ccc2ccccc2c1` [Example 106, (2S)-2-{4-[(2-amino-4,5-difluorobenzoyl)amino]benzyl}-N,N-diethyl-N′-(2-naphthylsulfonyl)malonamide], for which the Ki was determined as 1.6 nM.
The result for `CCN(CC)C(=O)[C@H](Cc1ccc(NC(=O)c2ccc(F)cc2N)cc1)C(=O)NS(=O)(=O)c1ccc2ccccc2c1` [Example 107, (2S)-2-{4-[(2-amino-4-fluorobenzoyl)amino]benzyl}-N,N-diethyl-N′-(2-naphthylsulfonyl)malonamide] reads 1.6 nM; that for `CCN(CC)C(=O)[C@H](Cc1ccc(NC(=O)c2cc(C)ccc2N)cc1)C(=O)NS(=O)(=O)c1ccc2ccccc2c1` [Example 108, (2S)-2-{4-[(2-amino-5-methylbenzoyl)amino]benzyl}-N,N-diethyl-N′-(2-naphthylsulfonyl)malonamide], 9.7 nM; that for `CCN(CC)C(=O)C(CCCc1ccc(N)cc1)C(=O)NS(=O)(=O)c1ccc2ccccc2c1` (stereo not shown) [Example 147, 2-[3-(4-aminophenyl)propyl]-N,N-diethyl-N′-(2-naphthylsulfonyl)malonamide], 34 nM.
The result for `CC(C)N(C(=O)C(Cc1ccc(F)cc1)C(=O)NS(=O)(=O)/C=C/c1ccccc1)c1cccnc1` (stereo not shown) [Example 322, 2-(4-fluorobenzyl)-N-isopropyl-N-(3-pyridyl)-N′-((E)-styrylsulfonyl)malonamide] reads 6.4 nM.
For `CCN(C(=O)C(Cc1cnn(Cc2ccccc2)c1)C(=O)NS(=O)(=O)/C=C/c1ccccc1)c1ccccc1` (stereo not shown) [Example 371, 2-[(1-benzyl-1H-pyrazol-4-yl)methyl]-N-ethyl-N-phenyl-N′-((E)-styrylsulfonyl)malonamide] the value was 12 nM; for `CCN(C(=O)C(CC(=O)N1CCc2ccccc2C1)C(=O)NS(=O)(=O)/C=C/c1ccccc1)c1ccccc1` (stereo not shown) [Example 441, 2-[2-(3,4-dihydroisoquinolin-2(1H)-yl)-2-oxoethyl]-N-ethyl-N-phenyl-N′-((E)-styrylsulfonyl)malonamide], 11 nM; for `C=CCC(C(=O)NS(=O)(=O)/C=C/c1ccccc1)C(=O)N(CC)c1cccc(C(F)(F)F)c1` (stereo not shown) [Example 475, 2-allyl-N-ethyl-N′-((E)-styrylsulfonyl)-N-(3-trifluoromethylphenyl)malonamide], 13 nM.
Consider `C=CCC(C(=O)NS(=O)(=O)/C=C/c1ccccc1)C(=O)N(c1ccc(F)cc1)C(C)C` (stereo not shown) [Example 481, 2-allyl-N-(4-fluorophenyl)-N-isopropyl-N′-((E)-styrylsulfonyl)malonamide], for which the Ki worked out at 9 nM.
For `CC(C)CC(C(=O)NS(=O)(=O)/C=C/c1ccccc1)C(=O)N(c1ccc(F)cc1)C(C)C` (stereo not shown) [Example 491, N-(4-fluorophenyl)-2-isobutyl-N-isopropyl-N′-((E)-styrylsulfonyl)malonamide] the value was 9.2 nM.
For `CC(C)CC(C(=O)NS(=O)(=O)CCc1ccccc1)C(=O)N(c1ccc(F)cc1)C(C)C` (stereo not shown) [Example 493, N-(4-fluorophenyl)-2-isobutyl-N-isopropyl-N′-phenethylsulfonylmalonamide], the inhibitory constant (Ki) was found to be 5.2 nM.
The result for `CC(C)CC(C(=O)NS(=O)(=O)c1ccc2ccccc2c1)C(=O)N(c1ccc(F)cc1)C(C)C` (stereo not shown) [Example 495, N-(4-fluorophenyl)-2-isobutyl-N-isopropyl-N′-(2-naphthylsulfonyl)malonamide] reads 8.4 nM; that for `CC(C)CC(C(=O)NS(=O)(=O)CCCOc1ccccc1)C(=O)N(c1ccc(F)cc1)C(C)C` (stereo not shown) [Example 496, N-(4-fluorophenyl)-2-isobutyl-N-isopropyl-N′-(3-phenoxypropylsulfonyl)malonamide], 12 nM.
The result for `CC(C)N(C(=O)C(CC1CC1)C(=O)NS(=O)(=O)CCc1ccccc1)c1ccc(F)cc1` (stereo not shown) [Example 529, 2-cyclopropylmethyl-N-(4-fluorophenyl)-N-isopropyl-N′-phenethylsulfonylmalonamide] reads 10 nM; that for `CC(C)N(C(=O)C(CC1CC1)C(=O)NS(=O)(=O)c1ccc2ccccc2c1)c1ccc(F)cc1` (stereo not shown) [Example 530, 2-cyclopropylmethyl-N-(4-fluorophenyl)-N-isopropyl-N′-(2-naphthylsulfonyl)malonamide], 13 nM.

The values are drawn from US8461209B2, “Malonic acid sulfonamide derivative and pharmaceutical use thereof” (Mitsubishi Tanabe Pharma Corporation, priority 2007, dated 2013).
